Experimental data published in patent US20240109900A1, “AZABICYCLIC SHP2 INHIBITORS” (IRBM S.P.A., priority 2021, published 2024).
Like-named read-outs stand apart in the source and are kept apart here.

Assays:
[1] = target: SHP-2 enzyme (Met1-Leu525) (Homo sapiens (Human), UniProt Q06124); assay: SHP2 inhibition enzymatic assay; type: biochemical; settings: 0.5 nM SHP-2 activated by 500 nM IRS1 peptide, 75 μM DiFMUP substrate; read-out: SHP2wt-IC50
Description: The assay was performed as described in YP Chen et al, Nature (535)2016. Assay volume of 20 μL/well was assembled in 384 well black polystyrene low-binding microplates (Greiner), using the following buffer: 60 mM HEPES pH 7.2, 75 mM NaCl, 75 mM KCl, 1 mM EDTA pH 8, 0.05% tween-20, 5 mM DTT. The SHP-2 enzyme (synthetized by Origene, Met1-Leu525, cat #TP750155) was used at a final concentration of 0.5 nM. The enzyme was activated by 500 nM IRS1 peptide (sequence: H2N-LN(pY)IDLDLV(dPEG8)LST(pY)ASINFQK-amide SEQ ID No. 1) and incubated with 75 μM DiFMUP (Sigma) as substrate.
Briefly, DMSO serially diluted testing compounds were transferred to the bottom of the assay plate. SHP2 was then added together with the IRS1 peptide. 30 min post incubation, the DiFMUP substrate was added to the reaction and incubated 30 min at room temperature. Finally 5 μL of 160 μM bpV (Potassium bisperoxo[1,10-phenanthroline]oxovanadate [V], Sigma) were added to stop and quench the reaction. The fluorescence was detected by a microplate reader (Envision, PerkinElmer) according to the DiFMUP excitation and emission wavelength. The lower the fluorescence the higher the SHP2 inhibition. […] The percentage inhibition is fitted against the compound dilutions with a four-parameter logistic regression. The inflection point (i.e. the concentration at which half-maximal inhibition is achieved) is the IC50.

[2] = system: ERK phosphorylation in KYSE-520 cells; assay: Phospho-ERK cellular assay; type: cell-based; settings: KYSE-520 cells, 2 h at 37° C., phospho-ERK1/2 (Thr202/Tyr204) TR-FRET, read-out: PERK IC50
Description: ERK phosphorylation was detected using the “Advanced phospho-ERK1/2 (Thr202/Tyr204)” TR-FRET kit (Cisbio, Cat #64AERPEG/H), following the manufacturer reagents and instructions.
Briefly, 20.000/well KYSE-520 cells (DSMZ ACC 371) were plated in 6 μL RPMI-1640 (Invitrogen) growth medium, into 384 white low-volume high base TC microplates (Greiner). After an overnight incubation, cells were treated with DMSO serial diluted compounds and incubated for 2 h at 37° C. After incubation, 2 μL/well of 4×Lysis Buffer (Cisbio 64KL1FDF), were added and incubated with cells for 30 min on gentle shaking. Finally, lysates were added with 2 μL/well of Eu cryptate (donor) and D2 (acceptor) conjugated antibodies (as provided by the Cisbio kit #64AERPEG/H) diluted 1:100 in Detection Buffer (as provided by the Cisbio kit #64AERPEG/H). Plates were then sealed and incubated at room temperature in the dark. After an overnight incubation, the TR-FRET signal was detected on a suitable reader (Envision, PerkinElmer). The lower the TR-FRET signal the higher the higher the SHP2 inhibition in cells.
The activity of each compound dilution was calculated as percentage between vehicle DMSO treated cells and no cells, 0% inhibition and 100% inhibition respectively. The percentage activity is fitted against the compound dilutions with a four-parameter logistic regression. The inflection point (i.e. the concentration at which half-maximal inhibition is achieved) is the IC50.

Sequence of SHP-2 enzyme (Met1-Leu525) (Q06124 1-525): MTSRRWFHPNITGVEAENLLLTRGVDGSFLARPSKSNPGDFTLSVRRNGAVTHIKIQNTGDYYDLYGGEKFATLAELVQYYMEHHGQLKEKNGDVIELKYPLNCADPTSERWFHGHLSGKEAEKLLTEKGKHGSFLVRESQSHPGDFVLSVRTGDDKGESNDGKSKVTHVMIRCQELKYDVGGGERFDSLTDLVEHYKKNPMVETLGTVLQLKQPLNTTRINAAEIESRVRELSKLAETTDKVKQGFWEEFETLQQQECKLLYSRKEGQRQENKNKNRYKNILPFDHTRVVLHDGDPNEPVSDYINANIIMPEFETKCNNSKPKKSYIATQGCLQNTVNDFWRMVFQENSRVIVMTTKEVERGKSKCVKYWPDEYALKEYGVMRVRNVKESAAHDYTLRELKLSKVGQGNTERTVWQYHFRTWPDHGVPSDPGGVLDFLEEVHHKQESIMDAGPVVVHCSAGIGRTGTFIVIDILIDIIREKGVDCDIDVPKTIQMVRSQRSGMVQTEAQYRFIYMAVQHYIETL

SMILES	IC50 [1] [nM]	IC50 ([2]; Homo sapiens, KYSE-520, 2 h) [nM]	IC50 [2] [nM]
Cc1csc([C@@]2(CN)[C@@H]3CN(c4cnc5c(-c6ccncc6Cl)n[nH]c5n4)C[C@@H]32)n1 [Example 519]	< 500		< 1000
Cn1cnc2c(Cl)c(-c3n[nH]c4nc(N5CC[C@@H]6[C@H](C5)[C@@]6(CN)c5ccccc5F)cnc34)ccc21 [Example 329, ((1S,6R,7R)-3-(3-(4-chloro-1-methyl-1H-benzo[d]imidazol-5-yl)-1H-pyrazolo[3,4-b]pyrazin-6-yl)-7-(2-fluorophenyl)-3-azabicyclo[4.1.0]heptan-7-yl)methanamine]	< 500	< 1000	
CN1C(=O)COc2ccc(-c3n[nH]c4nc(N5CC[C@@H]6[C@H](C5)[C@@]6(CN)c5ccccc5F)cnc34)c(Cl)c21 [Example 228, 6-(6-((1S,6R,7R)-7-(aminomethyl)-7-(2-fluorophenyl)-3-azabicyclo[4.1.0]heptan-3-yl)-1H-pyrazolo[3,4-b]pyrazin-3-yl)-5-chloro-4-methyl-2H-benzo[b][1,4]oxazin-3(4H)-one]	< 500	< 1000	
CCOc1ccc(-c2n[nH]c3nc(N4CC[C@@H]5[C@H](C4)[C@@]5(CN)c4ccccc4F)cnc23)c2cccnc12 [Example 164, ((1S,6R,7R)-3-(3-(8-ethoxyquinolin-5-yl)-1H-pyrazolo[3,4-b]pyrazin-6-yl)-7-(2-fluorophenyl)-3-azabicyclo[4.1.0]heptan-7-yl)methanamine]	< 500	< 1000	
NC[C@]1(c2ccccc2F)[C@@H]2CCN(c3cnc4c(-c5ccc6c(c5Cl)NC(=O)CO6)n[nH]c4n3)C[C@@H]21 [Example 207, 6-(6-((1S,6R,7R)-7-(aminomethyl)-7-(2-fluorophenyl)-3-azabicyclo[4.1.0]heptan-3-yl)-1H-pyrazolo[3,4-b]pyrazin-3-yl)-5-chloro-2H-benzo[b][1,4]oxazin-3(4H)-one]	< 500	< 1000	
Cc1cc(C2(CN)C3CCN(c4cnc5c(Sc6ccnc7ccsc67)n[nH]c5n4)CC32)no1 (centres unmarked) [Example 54, (7-(5-methylisoxazol-3-yl)-3-(3-(thieno[3,2-b]pyridin-7-ylthio)-1H-pyrazolo[3,4-b]pyrazin-6-yl)-3-azabicyclo[4.1.0]heptan-7-yl)methanamine]	< 500	< 1000	
NCC1(c2ccccn2)C2CCN(c3cnc(Sc4cccnc4C(F)(F)F)c(N)n3)CC21 (centres unmarked) [Example 72, 6-(7-(aminomethyl)-7-(pyridin-2-yl)-3-azabicyclo[4.1.0]heptan-3-yl)-3-((2-(trifluoromethyl)pyridin-3-yl)thio)pyrazin-2-amine]	< 500	< 1000	
Cc1c(-c2n[nH]c3nc(N4CC[C@@H]5[C@H](C4)[C@@]5(CN)c4ccccc4F)cnc23)ccn2cnnc12 [Example 211, ((1S,6R,7R)-7-(2-fluorophenyl)-3-(3-(8-methyl-[1,2,4]triazolo[4,3-a]pyridin-7-yl)-1H-pyrazolo[3,4-b]pyrazin-6-yl)-3-azabicyclo[4.1.0]heptan-7-yl)methanamine]	< 500	> 5000	

The next lines start with results.

IC50 [1] [nM]	IC50 ([2]; Homo sapiens, KYSE-520, 2 h) [nM]	SMILES	IC50 [2] [nM]
< 500	< 1000	Cc1nc([C@@]2(CN)[C@@H]3CN(c4cnc5c(-c6ccc7nn(C)cc7c6Cl)n[nH]c5n4)C[C@@H]32)co1 [Example 514, ((1R,5S,6r)-3-(3-(4-chloro-2-methyl-2H-indazol-5-yl)-1H-pyrazolo[3,4-b]pyrazin-6-yl)-6-(2-methyloxazol-4-yl)-3-azabicyclo[3.1.0]hexan-6-yl)methanamine]	
< 500	> 5000	Cn1cc(-c2n[nH]c3nc(N4CC[C@@H]5[C@H](C4)[C@@]5(CN)c4ccccc4F)cnc23)cn1 [Example 347, ((1S,6R,7R)-7-(2-fluorophenyl)-3-(3-(1-methyl-1H-pyrazol-4-yl)-1H-pyrazolo[3,4-b]pyrazin-6-yl)-3-azabicyclo[4.1.0]heptan-7-yl)methanamine]	
< 500	> 5000	NC[C@]1(c2ccccc2F)[C@@H]2CCN(c3cnc4c(-c5ccc6c(c5)S(=O)(=O)NC6=O)n[nH]c4n3)C[C@@H]21 [Example 249, 6-(6-((1S,6R,7R)-7-(aminomethyl)-7-(2-fluorophenyl)-3-azabicyclo[4.1.0]heptan-3-yl)-1H-pyrazolo[3,4-b]pyrazin-3-yl)benzo[d]isothiazol-3(2H)-one 1,1-dioxide]	
< 500	< 1000	NC[C@]1(c2ccccc2F)[C@@H]2CCN(c3cnc4c(-c5cccc(Br)c5Cl)n[nH]c4n3)C[C@@H]21 [Example 162, ((1S,6R,7R)-3-(3-(3-bromo-2-chlorophenyl)-1H-pyrazolo[3,4-b]pyrazin-6-yl)-7-(2-fluorophenyl)-3-azabicyclo[4.1.0]heptan-7-yl)methanamine]	
< 500	< 1000	NCC1(c2ccccc2F)C2CCN(c3cnc4c(-c5cccc6ncccc56)n[nH]c4n3)CC21 (centres unmarked) [Example 5, (7-(2-fluorophenyl)-3-(3-(quinolin-5-yl)-1H-pyrazolo[3,4-b]pyrazin-6-yl)-3-azabicyclo[4.1.0]heptan-7-yl)methanamine]	
< 500	< 1000	NC[C@]1(c2ccccc2F)[C@@H]2CCN(c3cnc4c(-c5ccc6nn(C7COC7)cc6c5Cl)n[nH]c4n3)C[C@@H]21 [Example 229, ((1S,6R,7R)-3-(3-(4-chloro-2-(oxetan-3-yl)-2H-indazol-5-yl)-1H-pyrazolo[3,4-b]pyrazin-6-yl)-7-(2-fluorophenyl)-3-azabicyclo[4.1.0]heptan-7-yl)methanamine]	
< 500	< 1000	NC[C@]1(c2ccccc2F)[C@@H]2CCN(c3cnc4c(-c5cc(F)c(O)cc5F)n[nH]c4n3)C[C@@H]21 [Example 354, 4-(6-((1S,6R,7R)-7-(aminomethyl)-7-(2-fluorophenyl)-3-azabicyclo[4.1.0]heptan-3-yl)-1H-pyrazolo[3,4-b]pyrazin-3-yl)-2,5-difluorophenol]	
< 500	< 1000	NC[C@]1(c2cc(F)ccc2F)[C@@H]2CCN(c3cnc(Sc4ccnc(N)c4Cl)c(N)n3)C[C@@H]21 [Example 414, 3-((2-amino-3-chloropyridin-4-yl)thio)-6-((1S,6R,7R)-7-(aminomethyl)-7-(2,5-difluorophenyl)-3-azabicyclo[4.1.0]heptan-3-yl)pyrazin-2-amine]	
< 500	< 1000	COc1ccc(-c2n[nH]c3nc(N4CC[C@@H]5[C@H](C4)[C@@]5(CN)c4ccccc4F)cnc23)c2cccnc12 [Example 146, ((1S,6R,7R)-7-(2-fluorophenyl)-3-(3-(8-methoxyquinolin-5-yl)-1H-pyrazolo[3,4-b]pyrazin-6-yl)-3-azabicyclo[4.1.0]heptan-7-yl)methanamine]	
< 500	< 1000	COc1ccc2cc(-c3n[nH]c4nc(N5CC[C@@H]6[C@H](C5)[C@@]6(CN)c5cc(C)on5)cnc34)ccc2n1 [Example 149, ((1S,6R,7S)-3-(3-(2-methoxyquinolin-6-yl)-1H-pyrazolo[3,4-b]pyrazin-6-yl)-7-(5-methylisoxazol-3-yl)-3-azabicyclo[4.1.0]heptan-7-yl)methanamine]	
< 500	< 1000	NC[C@]1(c2ccccc2F)[C@@H]2CCN(c3cnc4c(-c5ccc(C(N)=O)cc5Cl)n[nH]c4n3)C[C@@H]21 [Example 276, 4-(6-((1S,6R,7R)-7-(aminomethyl)-7-(2-fluorophenyl)-3-azabicyclo[4.1.0]heptan-3-yl)-1H-pyrazolo[3,4-b]pyrazin-3-yl)-3-chlorobenzamide]	
